US8716192B2, “Micro RNAs for identification of exposure to lower aliphatic saturated aldehydes and the method of identification using thereof” (Korea Institute of Science and Technology, priority 2012, dated 2014)
Read-outs that look alike come from different tables or passages of the source.

Key:
[1] = test system: hsa-miR-590-5p (MIMAT0003258); test: Micro RNA microarray, change of hsa-miR-590-5p expression; format: cell-based, human; details: for Change (Fold) hsa-miR-590-5p: A549, treated at IC20 for 48 hours, microarray, versus control
[2] = test system: hsa-miR-28-5p (MIMAT0000085); test: Micro RNA microarray, change of hsa-miR-28-5p expression; format: cell-based, human; details: for Change (Fold) hsa-miR-28-5p: A549, treated at IC20 for 48 hours, microarray, versus control
A549 cells [3] = test: Micro RNA expression pattern by oligo microarray (Agilent Human miRNA array v16.0, 1347 human micro RNAs); format: cell-based; details: A549, treated at IC20 for 48 hours; for number of up-regulated micro RNAs out of 1347 / up-regulated micro RNA, share of 1347 micro RNAs: signal ratio to control higher than 1.5; for down-regulated micro RNA, share of 1347 micro RNAs / number of down-regulated micro RNAs out of 1347: signal ratio to control lower than 0.66
A549 cells [4] = test: in vitro; format: cell-based, human
Protocol: (§1) A549 cells (Korean Cell Line Bank), the human lung cancer tissue derived cell line, were cultured in 100 mm dish containing RPMI (Gibro-BRL, USA) supplemented with 10% FBS until the confluency reached 80%. […] The concentration of vehicle was up to 0.1% in every experiment.
(§2) MTT assay was performed with A549 cell line according to the method of Mossman, et al (J. Immunol. Methods, 65, 55-63, 1983).
(§3) 48 hours later, 5 mg/ml of MTT (3-4,5-dimethylthiazol-2,5-diphenyltetra zolium bromide) was added thereto, followed by culture at 37° C. for 3 hours. Then, the medium was discarded and the formed formazan crystal was dissolved in 500 μl of DMSO, which was aliquoted in 96-well plate. OD540 was measured.

in vitro = format: cell-based, human; details: human
Protocol: as §1, §2, §3

SMILES	Change (Fold) hsa-miR-590-5p [1] [Fold]	expression level of hsa-miR-590-5p compared to the normal control group ([1]; result in words)	Change (Fold) hsa-miR-28-5p [2] [Fold]	number of up-regulated micro RNAs out of 1347 (A549 cells [3])	up-regulated micro RNA, share of 1347 micro RNAs (A549 cells [3]) [%]	down-regulated micro RNA, share of 1347 micro RNAs (A549 cells [3]) [%]	number of down-regulated micro RNAs out of 1347 (A549 cells [3])	IC20 (A549 cells [4]) [µM]	expression level of hsa-miR-28-5p compared to the normal control group ([2]; result in words)	IC20 at 48 h (in vitro) [µM]	expression level of hsa-miR-590-5p compared to the normal control group [1]	expression level of hsa-miR-28-5p compared to the normal control group [2]
CCCC=O [butylaldehyde]	0.563	down-regulated	0.962	14	1.04	0.82	11	4600				
CCCCCCCCC=O [nonanal]	0.966	down-regulated	1.569	6	0.45	0.00	0		up-regulated	440		
CCCCCCCC=O [octanal]	0.508	down-regulated	0.755	one	0.07	1.04	14		down-regulated			
CCC=O [propionaldehyde]				13	0.97	0.15	2		up-regulated			
CCCCC=O [valeraldehyde]	1.253	up-regulated	1.660	8	0.59	0.15	5		up-regulated			
CCCCCCC=O [heptanal]	0.512	down-regulated	0.922	0	0.00	0.30	4		down-regulated			
CCCCCC=O [hexanal]				5	0.37	0.07	1				up-regulated	up-regulated
